# Measured values: US5166135A, “Method for the control of pneumocystis carinii” (Merck & Company, Inc., priority 1991, dated 1992)
# Where “and” joins values, the source holds several entries; their conditions need not be identical. Equal values may be shown once. Numbered stars: 1 amine (or outer) side, 2 acyl side, 3 side chain; on linkers, the order of the positions; unused ones are H or OH. Bridge positions count the residues as written; N and C are the ends. Square brackets hold non-standard residues; d marks the D form. Peptide text beside a SMILES is read from it. * marks the point of attachment. ξ: configuration not given here. Orn(4R-OH,5R-OH) = O=C([C@H](C[C@@H](O)[C@@H](O)N[*:3])N[*:1])[*:2]; ξOrn(4R-OH,5R-OH) = O=C(C(C[C@@H](O)[C@@H](O)N[*:3])N[*:1])[*:2]; Tetradecanoyl(10R,12S-Me2) = CC[C@H](C)C[C@H](C)CCCCCCCCC(=O)*; hTyr(3S-OH,4S-OH) = N[C@H](C(=O)O)[C@H](O)[C@@H](O)c1ccc(O)cc1; ξhTyr(3S-OH,4S-OH) = NC(C(=O)O)[C@H](O)[C@@H](O)c1ccc(O)cc1; ξOrn(4,5-diOH) = O=C(C(CC(O)C(O)N[*:3])N[*:1])[*:2]; ξhTyr(βξ-OH,γξ-OH) = NC(C(=O)O)C(O)C(O)c1ccc(O)cc1; Pro(3S-OH,4S-Me) = C[C@H]1CN[C@H](C(=O)O)[C@H]1O; Benzoyl(4-octyloxy) = CCCCCCCCOc1ccc(C(=O)*)cc1; Gln(3R-OH) = NC(=O)C[C@@H](O)[C@H](N)C(=O)O; Linoleoyl = CCCCC/C=C\C/C=C\CCCCCCCC(=O)*; X1 = C[C@H]1CN([*:1])C(C(=O)[*:2])[C@H]1O; ξPro(3ξ-OH,4ξ-Me) = CC1CNC(C(=O)O)C1O; ξPro(4R-OH) = O=C(O)C1C[C@@H](O)CN1; Stearoyl = CCCCCCCCCCCCCCCCCC(=O)*; Hyp = O=C(O)[CH]1C[CH](O)CN1; ξT = CC(O)C(N)C(=O)O
# Experiments:
# P. carinii [1] = experiment: Prophylaxis study in immunosuppressed rats with latent P. carinii infections (Table IV); format: in vivo
# Description: In a study to test the effectiveness of these compounds as a potential prophylactic agent, rats with latent P. carinii infections were immunosuppressed with dexamethasone in drinking water to stimulate the development of acute PCP. During this immunosuppression period the animals were given daily subcutaneous injections of either 1 mg/kg of Compound IA or vehicle. After six weeks all animals were sacrificed. The number of cysts per lung was determined microscopically and the nuclei (trophozites)were quantitated using a specific DNA probe. From the following table (Table IV) it can be seen that the development of both cysts and trophozoite forms of P. carinii is prevented by daily treatments of Compound IA.
# Pneumocystis carinii [2] = experiment: Similar rat study, 7 days treatment, antipneumocystis activity of Compound IBii and Compound IA; format: in vivo; conditions: rats, 2 mg/kg injected twice daily for 7 days; vehicle 10% DMSO
# Description: A similar rat study was conducted to determine the antipneumocystis activity of 1-[(4R,5R)-4,5-dihydroxy-N^2 -[4-(octyloxy)benzoyl]-L-iiornithine]echinocandin B (Compound IBii). After 6 weeks of immunosuppression the rats were injected twice daily for 7 days with vehicle alone, Compound IBii (2 mg/kg) or Compound IA (2 mg/kg) during which time immunosuppression was continued. At the end of the treatment period the animals were sacrificed and the number of cysts per lung determined. Compound IA reduced the number of cysts by >99% while Compound IBii reduced the cyst counts by approximately 84% (compared to the vehicle control, 10% DMSO).
# [3] = system: Pneumocystis carinii cysts; experiment: 4-day treatment experiments, minimum effective dose for 90 percent clearance of cysts (Table III); format: in vivo; conditions: minimum effective dose for 90 percent clearance of cysts, six animals per dose level
# Description: When 4-day treatment experiments were carried out in a similar manner, but using different doses in order to determine the minimum effective dose for 90 percent clearance of Pneumocystis carinii cysts, the results shown on Table III were obtained (Six animals were used at each dose level.)
# P. carinii [4] = experiment: Repeat rat experiment with larger number of rats, cysts per lung; format: in vivo; conditions: five rats Compound IA, six rats TMP-SMZ; DMSO control 5.8×10^5 to 3.1×10^7; limit of resolution 2.8×10^3
# P. carinii [5] = experiment: Long term (21 days) therapy study, rate of cyst clearance; format: in vivo
# Description: Pentamadine was administered intravenously daily at a dose of 10 mg/kg, 2.5 times the recommended dose for man. Compound IA was given twice daily intraperitonealy at 1.0 mg/kg.
# P. carinii [6] = experiment: In vivo testing of Compound IA and TMP-SMZ against P. carinii in immunosuppressed rats (Table I); set-up: species or system Sprague-Dawley rats
# Description: In a representative study employing Compound IA in rats, nine male Sprague-Dawley rats from a colony known to have latent P. carinii infections, weighting approximately 200 grams each, were immunosupressed by the addition of dexamethasone to the drinking water (2.0 mg/liter) for six weeks to induce the development of P. carinii infections. To enhance the infection the rats were also maintained on a low protein diet. At the beginning of the seventh week the rats were divided into three groups of three rats each. All three groups continued to receive dexamethasone in the drinking water and low protein diet throughout the remainder of the study. The rats in Group I were kept as untreated infected controls, those in Group II were injected intraperitoneally twice daily for two weeks with 0.5 ml of sterile dH2 O containing 2 mg of Compound IA, and those in Group III were treated with trimethoprim-sulfamethoxazole (TMP-SMZ) in the drinking water (208 mg TMP and 1.040 g of SMZ/liter) for two weeks, a known treatment for P. carinii infections. Two rats died early in the experiment. One was from group II (rat 72A) and the other from group III (rat 75A). It was not determined whether they died from Pneumocystis pneumonia. At the end of the two week treatment period (a total of eight weeks of immunosuppression) the animals were sacrificed and the lung tissue removed. The lungs from each animal were weighed, and then processed to determine the number of cysts and parasite nuclei for each animal.
# Solubility properties = format: physicochemical; conditions: methanol, ethanol, dimethylformamide, dimethyl sulfoxide, and the like
# P. carinii [7] = experiment: Immunosuppressed mice study, reduction of cysts (Table II); format: in vivo, C3 H/HeN mice; conditions: 2 mg/kg intraperitoneally twice daily for one week
# Source text: Male C3 H/HeN mice, weighing 22-24 grams each, were immunosuppressed by the addition of dexamethasone to the drinking water for six weeks to induce the development of P. carinii infections. To enhance the infections the mice were also maintained on a low protein diet. At the beginning of the seventh week, the mice were randomly divided into groups of 6. All groups continued to receive dexamethasone in the drinking water and low protein diet for the remainder of the study. Mice in each group were injected intraperitonially twice daily with 0.5 ml of a 10% DMSO solution as a vehicle control or the same cocktail containing drug to achieve a dose of 2 mg/kg. This procedure was continued for one week.
# At the end of the treatment period (a total of seven weeks of immunosuppression) the animals were sacrificed and the lung tissue removed. The tissue was then processed to determine the number of cysts for each animal.
# Pneumocystis carinii [8] = experiment: Rat study of the 2-aminoethyl ether of tetrahydroechinocandin B, four days subcutaneous, four dose levels; format: in vivo, Sprague-Dawley rats; conditions: rats
# Description: In still another study, the antipneumocystis activity of a compound in wherein R^I is OH, R^II is OH, R^III is --CH2 CH2 NH2, R^I is OH, R^V is CH3, R^V is CH3, R is [drawing 21] preparation and structure in Example G) was determined. In this study, Sprague-Dawley rats (weighing approximately 250 g) were immunosuppressed with dexasone in the drinking water (2.0 mg/L) and maintained on a regular protein diet for 7 weeks to induce the development of pneumocystis pneumonia from a latent infection. Before drug treatment 2 rats were sacrificed to confirm the presence of Pneumocystis carinii pneumonia (PCP), both rats had infections. The remaining rats (weighing approximately 150 g) were distributed into groups of 6 and injected twice daily for four days subcutaneously with compound in 0.25 ml of vehicle (10% DMSO). The control groups received vehicle alone. All animals continued to receive dexasone in the drinking water and regular diet during the drug treatment period. At the completion of treatment all animals were sacrificed, the lungs were removed and processed, and the extent of disease determined by microscopic analysis of stained slides.
# Four dose levels of this compound were tested.
# [9] = 1 mg/kg s.c. daily for six weeks, P ≤ 0.002
# [10] = individual rats, after two weeks treatment
# [11] = individual rats, after two weeks: Compound IA 2 mg i.p. twice daily, or TMP-SMZ in drinking water
compound,measurement,setting,value
"CC[C@H](C)C[C@H](C)CCCCCCCCC(=O)N[C@H]1C[C@@H](O)[C@@H](O)NC(=O)[C@@H]2[C@@H](O)[C@@H](C)CN2C(=O)[C@H]([C@H](O)CC(N)=O)NC(=O)[C@H]([C@H](O)[C@@H](O)c2ccc(O)cc2)NC(=O)[C@@H]2C[C@@H](O)CN2C(=O)[C@H]([C@@H](C)O)NC1=O [Compound IA] ({Tetradecanoyl(10R,12S-Me2)}-[Orn(4R-OH,5R-OH)]T[Hyp][hTyr(3S-OH,4S-OH)][Gln(3R-OH)][Pro(3S-OH,4S-Me)]; lactam 1-C)",Cysts Log Mean,"P. carinii [1]; 1 mg/kg s.c. daily for six weeks during immunosuppression, detection limit 4.66, control 7.76 ± 0.10",4.70 ± 0.04
same,Nuclei Log Mean,"P. carinii [1]; 1 mg/kg s.c. daily for six weeks, DNA probe, detection limit 4.66, control 7.50 ± 0.15",4.85 ± 0.05
same,Cysts Reduction,P. carinii [1]; [9],> 99.9%
same,Nuclei Reduction,P. carinii [1]; [9],99.8%
same,Mean Lung Wt.,"P. carinii [1]; 1 mg/kg s.c. daily for six weeks, P ≤ 0.002 vs control",1.81 ± .10 gms
same,Mean Body Wt.,"P. carinii [1]; 1 mg/kg s.c. daily for six weeks, control 147.1 ± 6.3",142.0 ± 4.2 gms
same,reduction of number of cysts per lung compared to vehicle control,Pneumocystis carinii [2],> 99%
same,ED90,[3],0.2 mg/kg
same,number of cysts per lung (range over rats),P. carinii [4],3.2×10^3 to 2.6×10^4
same,extent of cyst clearance (reduction),"P. carinii [5]; Compound IA 1.0 mg/kg i.p. twice daily, compared with known agents at the two week time point",greater than 99%
same,time to elimination of cysts,P. carinii [5]; Compound IA 1.0 mg/kg intraperitoneally twice daily,≤ 4 days
same,CYST SCORE,P. carinii [6]; [10],0
same,LUNG WT.,P. carinii [6]; [10],2.83 gms and 1.40 gms
same,TOTAL NUCLEI per gm lung,P. carinii [6]; [11],7.4 × 10^8 and 7.1 × 10^8
same,TOTAL NUCLEI per lung,P. carinii [6]; [11],2.1 × 10^9 and 1.0 × 10^9
same,cysts in the lungs of treated rats,"P. carinii [6]; two weeks treatment, controls 3.2×10^8 -1.5×10^9",No cysts could be found
same,number of parasite nuclei (range over treated rats),"P. carinii [6]; two weeks treatment, controls 5.8×10^9 -1.4×10^10",1.0-2.1×10^9
same,solubility in organic solvents,Solubility properties,soluble
same,% Reduction of Cysts,P. carinii [7],> 99%
"CCCCC/C=C\C/C=C\CCCCCCCC(=O)N[C@H]1C[C@@H](O)[C@@H](O)NC(=O)[C@@H]2[C@@H](O)[C@@H](C)CN2C(=O)[C@H]([C@@H](C)O)NC(=O)[C@H]([C@H](O)[C@@H](O)c2ccc(O)cc2)NC(=O)[C@@H]2C[C@@H](O)CN2C(=O)[C@H]([C@@H](C)O)NC1=O [Echinocandin B] (Linoleoyl-[Orn(4R-OH,5R-OH)]T[Hyp][hTyr(3S-OH,4S-OH)]T[Pro(3S-OH,4S-Me)]; lactam 1-C)",ED90,[3],1.2 mg/kg
same,% Reduction of Cysts,P. carinii [7],> 99%
"Tetrahydroechinocandin-B, 2-aminoethyl Ether, Trifluoroacetate Salt [Example G]",ED90,[3],< 0.02 mg/kg
same,reduction of cysts,Pneumocystis carinii [8]; 18.25 μg/kg s.c. twice daily for four days,96%
same,reduction of cysts,Pneumocystis carinii [8]; 37.5 μg/kg s.c. twice daily for four days,98%
same,reduction of cysts,Pneumocystis carinii [8]; 75 μg/kg s.c. twice daily for four days,99%
same,reduction of cysts,Pneumocystis carinii [8]; 150 μg/kg s.c. twice daily for four days,99%
same,ED90,"Pneumocystis carinii [8]; s.c. twice daily for four days, cyst reduction",below 18.25 μg/kg
"CCCCCCCCOc1ccc(C(=O)NC2C[C@@H](O)[C@@H](O)NC(=O)C3[C@@H](O)[C@@H](C)CN3C(=O)C(C(C)O)NC(=O)C([C@H](O)[C@@H](O)c3ccc(O)cc3)NC(=O)C3C[C@@H](O)CN3C(=O)C(C(C)O)NC2=O)cc1 (stereo partly drawn) [Compound IBii, 1-[(4R,5R)-4,5-dihydroxy-N^2-[4-(octyloxy)benzoyl]-L-ornithine]echinocandin B] ({Benzoyl(4-octyloxy)}-[ξOrn(4R-OH,5R-OH)][ξT][ξPro(4R-OH)][ξhTyr(3S-OH,4S-OH)][ξT][X1]; lactam 1-C)",reduction of number of cysts per lung compared to vehicle control,Pneumocystis carinii [2],approximately 84%
same,ED90,[3],4.0 mg/kg
O-methyltetrahydroechinocandin B [O-Methyl-TEB],% Reduction of Cysts,P. carinii [7],> 99%
O-benzyltetrahydroechinocandin B [O-Benzyl-TEB],% Reduction of Cysts,P. carinii [7],99%
"CCCCCCCCCCCCCCCCCC(=O)NC1CC(O)C(O)NC(=O)C2C(O)C(C)CN2C(=O)C(C(C)O)NC(=O)C(C(O)C(O)c2ccc(O)cc2)NC(=O)C2CC(O)CN2C(=O)C(C(C)O)NC1=O (stereo not drawn) [Tetrahydroechinocandin B (TEB), tetrahydroechinocandin B] (Stearoyl-[ξOrn(4,5-diOH)]T[Hyp][ξhTyr(βξ-OH,γξ-OH)]T[ξPro(3ξ-OH,4ξ-Me)]; lactam 1-C; configuration not given here)",ED90,[3],0.2 mg/kg
same,% Reduction of Cysts,P. carinii [7],99%
